Test results from PubChem BioAssay AID788 (SRMLSC, 2007).
pIC50: −log10 of the molar value. The source made the active and inactive calls. No rule for the calls is given here.

Assays:
[1] = vps1Δ apl2Δ double mutant yeast growth inhibitors – S. cerevisiae, background strain comparison, post-Golgi transport modulator project, dose response (AID 788); conditions: S. cerevisiae vps1Δ apl2Δ growth inhibition, dose response; at 25 µM (top of the series)
[2] = system: S. cerevisiae wild-type background strain growth inhibition; experiment: as above; conditions: S. cerevisiae vps1Δ apl2Δ growth inhibition, dose response; measured here: wild-type background strain growth
[3] = system: S. cerevisiae vps1Δ apl2Δ growth inhibition, dose response; experiment: as above

| Structure (SMILES) | growth inhibition [1] | pIC50 [2] | pIC50 [3] | IC50 [3] |
| --- | --- | --- | --- | --- |
| O=C(Nc1nnc(-c2cccs2)o1)c1cccc(C(F)(F)F)c1 | 36.6% (inactive) |  |  |  |
| N#Cc1nc(COc2ccc(-c3ccccc3)cc2)oc1NCCCN1CCOCC1 |  | 4.81 | 4.86 |  |
| O=C(NCCc1ccccc1)C1CCN(S(=O)(=O)N2CCCC2)CC1 |  | < 5.00 |  | > 10 µM (inactive) |
| Cc1ccc(-c2csc3nnc(SCC(=O)Nc4cccc(C)n4)n23)cc1 |  | < 5.00 |  | > 10 µM (inactive) |
| OC(c1ccc(Cl)cc1Cl)C(Cc1cccnc1)n1cncn1 (stereo unspecified) |  | < 5.00 |  | > 10 µM (inactive) |
| CCOc1ccc(-c2[nH]ncc2Oc2ccccc2OCC)c(O)c1 |  | 4.80 | 5.10 |  |
| Fc1ccc(Cn2nnc(-c3ccc(CN4CCOCC4)cc3)n2)cc1 |  | < 5.00 | 5.29 |  |
| CCOCCCNC(=O)C1CCN(C(=O)N(C)C)CC1 |  | < 5.00 |  | > 10 µM (inactive) |
| O=C(CCC(=O)OCC(=O)c1ccc(F)cc1)NC1CCCCC1 |  | < 5.00 |  | > 10 µM (inactive) |
| CS(=O)(=O)N1CCC(C(=O)NCCN2CCN(Cc3ccccc3)CC2)CC1 |  | < 5.00 |  | > 10 µM (inactive) |
| Cn1c2ccc(Cl)cc2c2nc3ccccc3nc21 |  | < 5.00 |  | > 10 µM (inactive) |
| O=c1c2c3c(sc2ncn1/N=C/c1ccc([N+](=O)[O-])o1)CCCC3 |  | 5.80 |  | 1.8 µM (inactive) |
| Cc1ccc(C2(C(F)(F)F)N=C3Sc4cc(C)cc(C)c4N3C(=O)N2)cc1 (stereo unspecified) |  | 5.97 |  | 1.5 µM (inactive) |
| COc1ccccc1N1CCN(Cc2ccccc2F)CC1 |  | < 5.00 |  | > 10 µM (inactive) |
| C/C(CCC12CC3CC(CC(C3)C1)C2)=N\NC(N)=S |  | 5.28 | 5.78 |  |
| O=C(NCc1ccccc1)NS(=O)(=O)c1ccccc1Cl |  | < 5.00 |  | > 10 µM (inactive) |
| CCCCC1(CCCC)C(=O)NC(=Nc2cccc(C)c2)NC1=O |  | < 5.00 |  | > 10 µM (inactive) |
| Clc1ccc(-c2n[nH]c3c2CCC3)c(Cl)c1 |  | 6.29 |  | 1.04 µM (inactive) |
| Cc1nc(NC(=O)c2ccccc2)sc1-c1csc(Nc2ccc(F)cc2)n1 |  | < 5.00 |  | > 10 µM (inactive) |
| O=S(=O)(c1cnccc1N1CCN(/N=C/c2ccc(Br)cc2)CC1)N1CCCCC1 |  | < 5.00 |  | > 10 µM (inactive) |
| Cc1nnc(-c2cccc(Br)c2)c2cn(-c3ccccc3Cl)nc12 |  | 4.59 | 5.56 |  |

| Structure (SMILES) | growth inhibition [1] | pIC50 [2] | pIC50 [3] | IC50 [3] |
| --- | --- | --- | --- | --- |
| O=C1OCC(CO)(CO)N=C1NNc1ccc(Cl)c(Cl)c1 |  | 5.48 | 5.55 |  |
| CCn1c(SCC(=O)N2CCCc3ccccc32)nnc1-c1ccco1 |  | < 5.00 |  | > 10 µM (inactive) |
| O=C(NCC(c1cccnc1)N1CCN(c2ccccc2)CC1)c1ccc2c(c1)OCO2 (stereo unspecified) |  | < 5.00 |  | > 10 µM (inactive) |
| Cc1ccc(-n2cc3c(-c4cccc(Br)c4)nnc(C)c3n2)cc1 |  | 4.87 | 5.71 |  |
| CC1CC(C)CN(CCOc2ccc(Cl)cc2Cl)C1 (stereo unspecified) |  | < 5.00 | 5.18 |  |
| CCOC(=O)NC(Nc1ccc(S(N)(=O)=O)cc1)(C(=O)OCC)C(F)(F)F (stereo unspecified) |  | < 5.00 |  | > 10 µM (inactive) |
| Cc1ccc(S(=O)(=O)N2CC3CC(C2)c2cccc(=O)n2C3)cc1 (stereo unspecified) |  | < 5.00 |  | > 10 µM (inactive) |
| CCN(CC)c1ccc(CN2CC=C(c3ccc(F)cc3)CC2)cc1 |  | 4.59 | 5.01 |  |
| CC1CN(CCCCOc2ccc(C(C)C)cc2)CC(C)O1 (stereo unspecified) |  | < 5.00 | 6.15 |  |
| O=C(O)Cn1c(SCCOc2ccccc2F)nc2ccccc21 |  | < 5.00 |  | > 10 µM (inactive) |
| CC1CCCN(CCOCCOc2ccc(Cl)cc2Br)C1 (stereo unspecified) |  | < 5.00 | 5.60 |  |
| CCN(CC)C(=O)C1CCN(Cc2ccc(Br)cc2)CC1 |  | < 5.00 |  | > 10 µM (inactive) |
| O=c1c2cccc3c2c(nn1CN1CCOCC1)-c1ccccc1-3 |  | < 5.00 |  | > 10 µM (inactive) |
| Cc1ccc(CSc2nc3ccccc3cc2C=O)cc1 |  | 5.68 |  | 2.37 µM (inactive) |
| CCCCSCCCNC(=O)Nc1cccc(OC)c1 |  | < 5.00 |  | > 10 µM (inactive) |
| Cc1ccc(C(=O)NCc2occc2C(=O)O)o1 |  | < 5.00 |  | > 10 µM (inactive) |
| CCOC(=O)C(C)Oc1ccc2c(C)cc(=O)oc2c1C(C)=O (stereo unspecified) |  | < 5.00 |  | > 10 µM (inactive) |
| CC(NC(=O)CSc1nc2c(cc1C#N)CN(C)CC2)c1ccccc1 (stereo unspecified) |  | < 5.00 |  | > 10 µM (inactive) |
| COc1ccc(N2CCN(c3oc(-c4ccco4)nc3C#N)CC2)cc1 |  | < 5.00 |  | > 10 µM (inactive) |
| O=[N+]([O-])c1cc(C(F)(F)F)ccc1N/N=C/c1cc2ccccc2nc1Cl |  | < 5.00 |  | > 10 µM (inactive) |
| O=C(OCn1ncc(Cl)c(Cl)c1=O)c1ccc(C(F)(F)F)cc1 |  | < 5.00 | 4.63 |  |

| Structure (SMILES) | growth inhibition [1] | pIC50 [2] | pIC50 [3] | IC50 [3] |
| --- | --- | --- | --- | --- |
| O=C(Cn1nnc(-c2ccc(S(=O)(=O)N3CCCC3)cc2)n1)NCC1CCCO1 (stereo unspecified) |  | < 5.00 |  | > 10 µM (inactive) |
| Cc1cccc(OCC(=O)O/N=C(\N)Cc2ccc(Cl)cc2)c1 |  | 4.98 |  | > 10 µM (inactive) |
| CC1CN(CC(O)COc2ccc(C(C)C)cc2)CC(C)O1 (stereo unspecified) |  | < 5.00 | 4.82 |  |
| O=[N+]([O-])c1ccc(N2CCN(S(=O)(=O)c3ccc(Cl)cc3)CC2)cc1NCc1cccnc1 |  | < 5.00 |  | > 10 µM (inactive) |
| Cc1cc(Cl)cc(C)c1OCCCCN1CCOCC1 |  | < 5.00 |  | > 10 µM (inactive) |
| O=C(N/N=C/c1ccc([N+](=O)[O-])o1)c1cc(-c2cccc(Br)c2)nc2ccccc12 |  | 5.33 | 5.99 |  |
| CCc1n[nH]c2c1/C(=N\O)CC(C)(C)C2 |  | < 5.00 |  | > 10 µM (inactive) |
| COc1ccc(C2CC(=O)C3=C(C2)NC(C)=C(C(=O)Nc2ccccc2C)C3c2coc3ccc(C)cc3c2=O)cc1OC (stereo unspecified) |  | < 5.00 |  | > 10 µM (inactive) |
| O=C(Nc1nc(-c2ccccn2)cs1)c1ncc(Cl)c(Cl)c1Cl |  | 4.88 | 5.36 |  |
| O=C(Nc1nnc(-c2ccccc2)o1)c1ccc(Cl)cc1 |  | 6.19 |  | 2.46 µM (inactive) |
| Clc1ccc(-c2cnc(Oc3ccccc3)nc2)cc1 |  | < 5.00 |  | > 10 µM (inactive) |
| Cc1ccc(S(=O)(=O)N(CC(=O)N2CCC(C(N)=O)CC2)c2cccc(C(F)(F)F)c2)cc1 |  | < 5.00 |  | > 10 µM (inactive) |
| Cc1cc([N+](=O)[O-])c(-c2ccc(/C=N/n3cnnc3)o2)cc1Cl |  | 6.87 |  | 0.39 µM (inactive) |
| O=C(O)c1ccc(N2CCCCC2)cc1 |  | < 5.00 |  | > 10 µM (inactive) |
| CCCCCCCCNc1ncnc2ccccc12 |  | 4.83 |  | > 10 µM (inactive) |
| CCCC(=O)N1CCN(c2ccc(NC(=O)c3cc4ccccc4o3)cc2Cl)CC1 |  | 4.72 |  | 20.8 µM (inactive) |
| CCCC(=O)Nc1ccc(Cl)c(NC(=O)c2cccnc2Cl)c1 |  | < 5.00 |  | > 10 µM (inactive) |
| O=C(OCn1ncc(Cl)c(Cl)c1=O)c1cccc(C(F)(F)F)c1 |  | 5.45 |  | 6 µM (inactive) |
| O=C(Cc1cccs1)Nc1nc2c(s1)CCCC2 |  | < 5.00 |  | > 10 µM (inactive) |
| O=C1OCC2=C1C(c1ccc(F)cc1)Sc1ccccc1N2 (stereo unspecified) |  | < 5.00 | 4.62 |  |
| O=C1CC(N2CCN(c3ccc(Cl)c(Cl)c3)CC2)C(=O)N1 (stereo unspecified) |  | < 5.00 |  | > 10 µM (inactive) |

| Structure (SMILES) | growth inhibition [1] | pIC50 [2] | pIC50 [3] | IC50 [3] |
| --- | --- | --- | --- | --- |
| CC(=O)Nc1ccccc1NS(=O)(=O)c1ccc(Cl)cc1 |  | < 5.00 |  | > 10 µM (inactive) |
| Cc1ccnc(N2C(=O)c3cccc4c([N+](=O)[O-])ccc(c34)C2=O)c1 |  | 5.37 |  | 5.37 µM (inactive) |
| O=C(Nc1nnc(C2CC2)o1)c1ccc(S(=O)(=O)N2CCCc3ccccc32)cc1 |  | 5.50 |  | > 10 µM (inactive) |
| COCCNc1cc(C)nc2c3c(C)cc(C)nc3nn12 |  | < 5.00 |  | > 10 µM (inactive) |
| O=c1cccc2n1CC1CC2CN(S(=O)(=O)c2ccccc2)C1 (stereo unspecified) |  | < 5.00 |  | > 10 µM (inactive) |
| O=C(NC(C(=O)c1ccccc1)N1CCCCC1)c1ccccc1 (stereo unspecified) |  | < 5.00 |  | > 10 µM (inactive) |
| COC(=O)C1=CN(CCCN2CCCC2=O)C=C(C(=O)OC)C1c1ccccc1C(F)(F)F |  | < 5.00 |  | > 10 µM (inactive) |
| CCCCS(=O)(=O)/C=C\C=C/S(=O)(=O)CCCC |  | 4.86 | 4.92 |  |
| O=C(NCc1ccc2c(c1)OCO2)c1ccc(CS(=O)(=O)c2cccc(C(F)(F)F)c2)o1 |  | < 5.00 |  | > 10 µM (inactive) |
| CCN1CCN(c2c(Cl)cccc2NC(=O)c2ccc(Br)o2)CC1 |  | < 5.00 |  | > 10 µM (inactive) |
| COc1ccc(Cl)cc1NC(=O)C(C)N1CCN(C/C=C/c2ccccc2)CC1 (stereo unspecified) |  | 4.82 | 5.05 |  |
| O=C(CC(=O)c1cc(Cl)ccc1O)c1ccccc1 |  | 4.90 | 5.01 |  |
| COC(=O)c1ccc(NC(=O)c2cn(-c3ccccc3)nc2-c2ccncc2)cc1 |  | < 5.00 |  | > 10 µM (inactive) |
| Nc1cc(N)c(OCC(F)(F)F)cc1OCC(F)(F)F |  | < 5.00 |  | > 10 µM (inactive) |
| O=C(NCc1ccc2c(c1)OCO2)C1CCCN1C(=O)Nc1ccccc1 (stereo unspecified) |  | < 5.00 |  | > 10 µM (inactive) |
| CCC(=O)N(CCO)Cc1cc2ccc(C)c(C)c2[nH]c1=O |  | < 5.00 |  | > 10 µM (inactive) |
| CC1CCCCC1NC(=O)CSc1nnnn1-c1ccccc1 (stereo unspecified) |  | < 5.00 |  | > 10 µM (inactive) |
| O=C(OCn1nnc2ccccc2c1=O)c1cn(-c2ccccc2)nc1-c1cccnc1 |  | < 5.00 |  | > 10 µM (inactive) |
